SMILES strings stand for the structures.

Assay type in all cases: in vivo, mouse
The subject of one assay is LY0257/ABC. Put plainly: DLBCL PDX model. Particulars: LY0257/ABC MyD88, 17 days, QD PO; TL-895 and ibrutinib 25 mg/kg, acalabrutinib 30 mg/kg. The protocol:
(§1) All three compounds were formulated in a solution of 20% kleptose (hydroxypropyl β-cyclodextrin) in 50 mM citrate and administered QD PO during the treatment periods given for each model.
(§2) For mean values > 0: %ΔT/ΔC=endtumorvolumetreatment-starttumorvolumetreatment/endtumorvolumecontrol-starttumorvolumecontrol×100
(§3) For mean values ≤ 0 (i.e. regression): %ΔT/ΔC=endtumorvolumetreatment-starttumorvolumetreatment/starttumorvolumecontrol×100
(§4) The research use of patient material in PDX models at Crown Bioscience, XenoSTART and EPO-GmbH was approved by the local Institutional Ethical Review Boards and the patients provided written informed consent. Molecular analysis was performed on samples from each model using the EdgeSeq DLBCL Cell of Origin Assay (HTG Molecular Diagnostics, Tucson, AZ, USA) to confirm ABC-GCB DLBCL subtype.
(§5) Stock mice inoculated with human DLBCL cancer tissues were euthanized by progressive hypoxemia with CO2 and tumors were harvested. Tumor fragments were used at three different contract research organizations for xenotransplantation into different mouse strains for the following models: (1) 6-week-old female nude (NMRI:nu/nu) or CB17-SCID mice (Javier Labs, France): Ly12638, Ly11212, and Ly13005 (Experimental Pharmacology and Oncology Berlin-Buch GmbH [EPO-GmbH], Germany); (2) 6–8-week-old female BALB/c nude or NOD SCID mice (Beijing HFK Bioscience Co., Ltd. Beijing, China): LY0257, LY2214, LY3604, LY2298, LY2264, LY2318, and LY2345 (Crown Bioscience Inc, Taicang, China); and (3) 6–12-week-old female CB-17 SCID mice (CB17/Icr-Prkdc^scid/IcrIcoCrl Charles River Laboratories, Wilmington, MA, USA): ST118B, ST949B, ST359, ST949, ST2761B, ST2963, ST1361, ST2078, ST1735B, ST2902, and ST3497 (XenoSTART, San Antonio, TX, USA).
(§6) When the average tumor volume was within a pre-determined range (100–300 mm^3), mice were assigned to treatment groups to balance the mean starting tumor volumes (n = 5 for all models except LY13005, which was n = 3). […] Tumor volumes were recorded 2–3 times per week. Mean %∆T/∆C was calculated at the end of treatment as described above for MCL models.
(§7) Tumor volume was used as the measure of efficacy for statistical analyses of in vivo xenograft studies. Tumor volume data from individual studies were log-transformed and statistically analyzed using repeated measures analysis of covariance (RM-ANCOVA) to determine significant treatment effects, followed by post hoc Tukey’s test for multiple pairwise comparisons (all α = 0.05) using R software. Day 0 data were used only as covariates in the analyses because tumor measurements on that day were recorded before the first treatments were administered.

Another assay concerns LY11212/GCB. As to the kind of experiment: DLBCL PDX model. Particulars: 13 days, QD PO, TL-895 and ibrutinib 25 mg/kg, acalabrutinib 30 mg/kg. As to the method: as §1, §2, §3, §4, §5, §6, §7
The test system of the next assay is LY12638/GCB. Put plainly: DLBCL PDX model. To be noted: 25 days, QD PO, TL-895 and ibrutinib 25 mg/kg, acalabrutinib 30 mg/kg. As to the method:
as §1, §2, §3, §4, §5, §6, §7

The subject of another assay is LY13005/ABC. Put plainly: DLBCL PDX model. Particulars: 14 days, QD PO, TL-895 and ibrutinib 25 mg/kg, acalabrutinib 30 mg/kg. The protocol:
as §1, §2, §3, §4, §5, §6, §7

Another assay has as its system LY2214/Unc. As to the kind of experiment: DLBCL PDX model. To be noted: 17 days, QD PO, TL-895 and ibrutinib 25 mg/kg, acalabrutinib 30 mg/kg. As to the method:
as §1, §2, §3, §4, §5, §6, §7

For the next assay, the system named is LY2264/ABC. Put plainly: DLBCL PDX model. Particulars: LY2264/ABC MyD88, 25 days, QD PO; TL-895 and ibrutinib 25 mg/kg, acalabrutinib 30 mg/kg. As to the method:
as §1, §2, §3, §4, §5, §6, §7

The next assay deals with LY2298/ABC. As to the kind of experiment: DLBCL PDX model. Particulars: LY2298/ABC MyD88, 16 days, QD PO; TL-895 and ibrutinib 25 mg/kg, acalabrutinib 30 mg/kg. As to the method: as §1, §2, §3, §4, §5, §6, §7
A further assay relates to LY2318/ABC. Put plainly: DLBCL PDX model. Particulars: 14 days, QD PO, TL-895 and ibrutinib 25 mg/kg, acalabrutinib 30 mg/kg. As to the method:
as §1, §2, §3, §4, §5, §6, §7

Another assay relates to LY2345/ABC. As to the kind of experiment: DLBCL PDX model. To be noted: 17 days, QD PO, TL-895 and ibrutinib 25 mg/kg, acalabrutinib 30 mg/kg. The protocol:
as §1, §2, §3, §4, §5, §6, §7

The test system of a further assay is LY3604/ABC. As to the kind of experiment: DLBCL PDX model. To be noted: 17 days, QD PO, TL-895 and ibrutinib 25 mg/kg, acalabrutinib 30 mg/kg. The protocol:
as §1, §2, §3, §4, §5, §6, §7

The next assay deals with ST118B/ABC. As to the kind of experiment: DLBCL PDX model. Particulars: ST118B/ABC MyD88, 19 days, QD PO; TL-895 and ibrutinib 25 mg/kg, acalabrutinib 30 mg/kg. As to the method:
as §1, §2, §3, §4, §5, §6, §7

The test system of another assay is ST1361/GCB. Put plainly: DLBCL PDX model. Particulars: 11 days, QD PO, TL-895 and ibrutinib 25 mg/kg, acalabrutinib 30 mg/kg. The protocol:
as §1, §2, §3, §4, §5, §6, §7

A further assay concerns ST1735B/GCB. Put plainly: DLBCL PDX model. Particulars: 29 days, QD PO, TL-895 and ibrutinib 25 mg/kg, acalabrutinib 30 mg/kg. As to the method: as §1, §2, §3, §4, §5, §6, §7
The test system of a further assay is ST2078/GCB. As to the kind of experiment: DLBCL PDX model. Particulars: 20 days, QD PO, TL-895 and ibrutinib 25 mg/kg, acalabrutinib 30 mg/kg. As to the method:
as §1, §2, §3, §4, §5, §6, §7

The test system of a further assay is ST23497/GCB. As to the kind of experiment: DLBCL PDX model. Particulars: 17 days, QD PO, TL-895 and ibrutinib 25 mg/kg, acalabrutinib 30 mg/kg. As to the method: as §1, §2, §3, §4, §5, §6, §7
The next assay deals with ST2761B/GCB. Put plainly: DLBCL PDX model. Particulars: 24 days, QD PO, TL-895 and ibrutinib 25 mg/kg, acalabrutinib 30 mg/kg. The protocol: as §1, §2, §3, §4, §5, §6, §7
The next assay has as its system ST2902/GCB. Put plainly: DLBCL PDX model. Particulars: 22 days, QD PO, TL-895 and ibrutinib 25 mg/kg, acalabrutinib 30 mg/kg. As to the method:
as §1, §2, §3, §4, §5, §6, §7

In a further assay the test system is ST2963/GCB. Put plainly: DLBCL PDX model. To be noted: 13 days, QD PO, TL-895 and ibrutinib 25 mg/kg, acalabrutinib 30 mg/kg. The protocol:
as §1, §2, §3, §4, §5, §6, §7

A further assay has as its system ST359/GCB. As to the kind of experiment: DLBCL PDX model. Particulars: 11 days, QD PO, TL-895 and ibrutinib 25 mg/kg, acalabrutinib 30 mg/kg. The protocol:
as §1, §2, §3, §4, §5, §6, §7

The subject of the next assay is ST949/GCB. Put plainly: DLBCL PDX model. Particulars: 14 days, QD PO, TL-895 and ibrutinib 25 mg/kg, acalabrutinib 30 mg/kg. As to the method: as §1, §2, §3, §4, §5, §6, §7
Another assay relates to DLBCL PDX models. As to the kind of experiment: 21 DLBCL PDX models, overall tumor response. The protocol:
as §4
Stock mice inoculated with human DLBCL cancer tissues were euthanized by progressive hypoxemia with CO2 and tumors were harvested. […]
as §6
Tumor volume was used as the measure of efficacy for statistical analyses of in vivo xenograft studies. Tumor volume data from individual studies were log-transformed and statistically analyzed using repeated measures analysis of covariance (RM-ANCOVA) to determine significant treatment effects, followed by post hoc Tukey’s test for multiple pairwise comparisons (all α = 0.05) using R software. Day 0 data were used only as covariates in the analyses because tumor measurements on that day were recorded before the first treatments were administered. […]

Take `CC#CC(=O)N1CCC[C@H]1c1nc(-c2ccc(C(=O)Nc3ccccn3)cc2)c2c(N)nccn12` [Acalabrutinib]: the “%ΔT/ΔC” value in the assay with LY0257/ABC is recorded as 54^M %; with LY11212/GCB, 126%; in the assay with LY12638/GCB, 262%; with LY13005/ABC, 64^V %; with LY2214/Unc, 63%; in the assay on LY2264/ABC, 48^V %. Besides, the “%ΔT/ΔC” value in the assay on LY2298/ABC was 27^V,I %; with LY2318/ABC, 102%; in the assay on LY2345/ABC it was 108%; in the assay on LY3604/ABC, 36^V %; with ST118B/ABC, 104%; with ST1361/GCB it was 74^V %. The “%ΔT/ΔC” value is 80% with ST1735B/GCB; 115^I % in the assay on ST2078/GCB; 100% with ST23497/GCB; 94% with ST2761B/GCB; 85% in the assay with ST2902/GCB; 116% in the assay on ST2963/GCB. The results for the “%ΔT/ΔC” value in the assay with ST359/GCB and with ST949/GCB were 54% and 72%, respectively. Also, the “Tumor response rate (models with P < 0.05 versus vehicle)” value in the assay with DLBCL PDX models was determined as 24%.

In the case of `C=CC(=O)N1CCC[C@@H](n2nc(-c3ccc(Oc4ccccc4)cc3)c3c(N)ncnc32)C1` [Ibrutinib], the “%ΔT/ΔC” value was 88^M % with LY0257/ABC; 171% in the assay with LY11212/GCB; 121% with LY12638/GCB; 71^M % in the assay with LY13005/ABC; 77% in the assay with LY2214/Unc; 74^M % in the assay with LY2264/ABC. Moreover, the “%ΔT/ΔC” value is on record as 69^A % in the assay on LY2298/ABC; 86% with LY2318/ABC; 118% with LY2345/ABC; 38^V % in the assay on LY3604/ABC; 90% in the assay with ST118B/ABC; 65^V % in the assay with ST1361/GCB. In addition, the “%ΔT/ΔC” value in the assay on ST1735B/GCB is 75%; in the assay with ST2078/GCB, 75^A %; with ST23497/GCB it was 95%; with ST2761B/GCB it was 71%; in the assay with ST2902/GCB, 92%; in the assay on ST2963/GCB it was 81%. Further, the “%ΔT/ΔC” value was 62% in the assay on ST359/GCB and 86% in the assay on ST949/GCB. The “Tumor response rate (models with P < 0.05 versus vehicle)” value with DLBCL PDX models is listed as 10%.

Consider `C=CC(=O)N1CCC(F)(CNc2ncnc(N)c2-c2ccc(Oc3ccccc3)cc2)CC1` [TL-895], for which the “%ΔT/ΔC” value is listed as 45^V,I,A % in the assay with LY0257/ABC; 115% with LY11212/GCB; 84% in the assay on LY12638/GCB; 43^V,I % in the assay on LY13005/ABC; 93% with LY2214/Unc; 37^V,I % with LY2264/ABC. Also, the “%ΔT/ΔC” value is 38% with LY2298/ABC; 104% with LY2318/ABC; 120% in the assay on LY2345/ABC; 32^V % in the assay with LY3604/ABC; 68% with ST118B/ABC; 60^V % in the assay on ST1361/GCB. In addition, the “%ΔT/ΔC” value with ST1735B/GCB turned out to be 101%; in the assay with ST2078/GCB it was 114%; with ST23497/GCB it was 101%; in the assay on ST2761B/GCB, 90%; with ST2902/GCB it was 104%; with ST2963/GCB, 106%. Further, the “%ΔT/ΔC” value is given as 71% in the assay with ST359/GCB and 83% in the assay with ST949/GCB. In addition, the “Tumor response rate (models with P < 0.05 versus vehicle)” value in the assay with DLBCL PDX models is reported as 24%.

The record behind these values is publication PMC10663516 (Scientific Reports, 2023).
